Source: paper PMC10281575, “PfCRT mutations conferring piperaquine resistance in falciparum malaria shape the kinetics of quinoline drug binding and transport” (PLOS Pathogens, 2023)
Where a chain is given by its changes, count along the chain named. Several values for one entry are separate records, joined by “and”; a condition that tells them apart may be missing. Equal values may be shown once.

How the values were obtained:
Format in all cases: cell-based
Conditions in all cases: individual replicates (S3 Fig)
PfCRT^Dd2_M343L = molecular target: T1, PfCRT^Dd2_M343L (Plasmodium falciparum, UniProt Q8IBZ9, A220S/I356T/K76T/M343L/M74I/N326S/N75E/Q271E/R371I); experiment: Verapamil inhibition of PfCRT-mediated CQ and PPQ transport in oocytes, PfCRT^Dd2_M343L
T1 construct: expressed in transfected cells; host or cells: Xenopus laevis oocytes injected with in vitro transcribed RNA (pSP64T)
T1 sequence (Q8IBZ9 1-424 M74I/N75E/K76T/A220S/Q271E/N326S/M343L/I356T/R371I): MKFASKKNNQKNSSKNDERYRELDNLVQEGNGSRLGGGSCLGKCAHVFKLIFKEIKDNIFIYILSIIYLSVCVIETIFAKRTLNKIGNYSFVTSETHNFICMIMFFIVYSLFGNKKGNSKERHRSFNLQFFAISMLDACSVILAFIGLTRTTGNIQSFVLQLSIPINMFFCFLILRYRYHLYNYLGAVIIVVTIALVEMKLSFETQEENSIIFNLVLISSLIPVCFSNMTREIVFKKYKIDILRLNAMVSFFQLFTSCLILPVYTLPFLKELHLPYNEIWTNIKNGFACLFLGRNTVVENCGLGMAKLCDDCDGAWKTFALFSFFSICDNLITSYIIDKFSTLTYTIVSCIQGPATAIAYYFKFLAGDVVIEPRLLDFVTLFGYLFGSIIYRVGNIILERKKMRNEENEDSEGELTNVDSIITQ
Method: (§1) In all cases, the PfCRT-mediated CQ and PPQ transport was inhibited in the presence of 100 μM verapamil (S3 Fig).
(§2) Drug transport assays were performed as previously described. Briefly, measurements of radiolabeled drug uptake were made over 1 h, unless otherwise specified. […] Where specified, one or more unlabeled drugs were also present at the indicated concentrations. The direction of drug transport in the assays is from the extracellular medium (pH 6) into the oocyte cytosol (pH 7.2), which corresponds to the efflux of CQ or PPQ from the acidic digestive vacuole (pH 5.2) into the parasite cytosol (pH 7.2). The uptake assays were terminated by removing the oocytes from the reaction medium and washing them three times with 2 mL of ice-cold ND96 buffer. Each oocyte was transferred to a separate scintillation vial and lysed by the addition of 200 μL of a 5% SDS solution. The radioactivity in the sample was measured using a liquid scintillation analyser Tri-Carb 4910 TR (PerkinElmer). Water-injected oocytes were analyzed in parallel as a negative control. The buffer from each condition was measured in duplicate in parallel to each experiment to transform counts per minute into pmol of drug. Drug uptake attributable to PfCRT was determined by subtracting the background uptake from water-injected oocytes from that of PfCRT-expressing oocytes. In all cases, at least three independent experiments were performed on oocytes from different frogs, and for each condition in an experiment, measurements were made from 10 oocytes per treatment.
(§3) Supplementary file ppat.1011436.s006.tif: S3 Fig Verapamil inhibits PfCRT-mediated transport of CQ and PPQ. […] Left panels, data is shown as individual biological replicates (coloured symbols) overlaid onto bars representing the Mean ± S.E.M. (error bars). A one-tailed Student’s t-test was performed between untreated (no VP) and treated (+ 100 μM VP) samples, and the obtained p values are shown. Right panels, the uptake in VP-treated samples was divided by the uptake in their corresponding untreated pairs and subtracted from 100% to get the percentage of uptake inhibition mediated by the presence of 100 μM verapamil in the extracellular medium. Error bars are S.E. (TIF) Click here for additional data file.

PfCRT^Dd2 = molecular target: T2, PfCRT^Dd2 (Plasmodium falciparum, UniProt Q8IBZ9, A220S/I356T/K76T/M74I/N326S/N75E/Q271E/R371I); experiment: Verapamil inhibition of PfCRT-mediated CQ and PPQ transport in oocytes, PfCRT^Dd2; set-up: expressed in transfected cells; host or cells: Xenopus laevis oocytes injected with in vitro transcribed RNA (pSP64T)
T2 sequence (Q8IBZ9 1-424 M74I/N75E/K76T/A220S/Q271E/N326S/I356T/R371I): T1 sequence (Q8IBZ9 1-424 M74I/N75E/K76T/A220S/Q271E/N326S/M343L/I356T/R371I) with L343M
Method: as §1, §2, §3

PfCRT^Dd2_H97Y = molecular target: T3, PfCRT^Dd2_H97Y (Plasmodium falciparum, UniProt Q8IBZ9, A220S/H97Y/I356T/K76T/M74I/N326S/N75E/Q271E/R371I); experiment: Verapamil inhibition of PfCRT-mediated CQ and PPQ transport in oocytes, PfCRT^Dd2_H97Y
T3 construct: expressed in transfected cells; host or cells: Xenopus laevis oocytes injected with in vitro transcribed RNA (pSP64T)
T3 sequence (Q8IBZ9 1-424 M74I/N75E/K76T/H97Y/A220S/Q271E/N326S/I356T/R371I): T1 sequence (Q8IBZ9 1-424 M74I/N75E/K76T/A220S/Q271E/N326S/M343L/I356T/R371I) with H97Y, L343M
Method: as §1, §2, §3

SMILES	PfCRTDd2_M343L-mediated CQ transport (PfCRT^Dd2_M343L; 50 µM CQ + 100 µM VP)	PfCRTDd2_M343L-mediated CQ transport (PfCRT^Dd2_M343L; 50 µM CQ)	PfCRTDd2-mediated CQ transport (PfCRT^Dd2; 50 µM CQ + 100 µM VP)	PfCRTDd2-mediated CQ transport (PfCRT^Dd2; 50 µM CQ)	PfCRTDd2_H97Y-mediated CQ transport (PfCRT^Dd2_H97Y; 50 µM CQ + 100 µM VP)	PfCRTDd2_H97Y-mediated CQ transport (PfCRT^Dd2_H97Y; 50 µM CQ)	PfCRTDd2_M343L-mediated PPQ transport (PfCRT^Dd2_M343L; 50 µM PPQ + 100 µM VP)	PfCRTDd2-mediated PPQ transport (PfCRT^Dd2; 50 µM PPQ + 100 µM VP)	PfCRTDd2-mediated PPQ transport (PfCRT^Dd2; 50 µM PPQ)	PfCRTDd2_H97Y-mediated PPQ transport (PfCRT^Dd2_H97Y; 50 µM PPQ + 100 µM VP)
CCN(CC)CCCC(C)Nc1ccnc2cc(Cl)ccc12 (stereo not shown) [CQ, chloroquine]	1.630 pmol oocyte-1 h-1 and 0.990 pmol oocyte-1 h-1 and 2.400 pmol oocyte-1 h-1	2.130 pmol oocyte-1 h-1 and 3.200 pmol oocyte-1 h-1 and 2.380 pmol oocyte-1 h-1 and 2.370 pmol oocyte-1 h-1	1.980 pmol oocyte-1 h-1 and 2.230 pmol oocyte-1 h-1 and 2.450 pmol oocyte-1 h-1 and 1.670 pmol oocyte-1 h-1 and 3.620 pmol oocyte-1 h-1	3.900 pmol oocyte-1 h-1 and 4.910 pmol oocyte-1 h-1 and 4.760 pmol oocyte-1 h-1 and 7.490 pmol oocyte-1 h-1 and 5.040 pmol oocyte-1 h-1 and 3.980 pmol oocyte-1 h-1 and 10.460 pmol oocyte-1 h-1	2.480 pmol oocyte-1 h-1 and 0.550 pmol oocyte-1 h-1 and 3.310 pmol oocyte-1 h-1 and 4.210 pmol oocyte-1 h-1	8.240 pmol oocyte-1 h-1 and 3.560 pmol oocyte-1 h-1 and 5.410 pmol oocyte-1 h-1 and 4.920 pmol oocyte-1 h-1				
Clc1ccc2c(N3CCN(CCCN4CCN(c5ccnc6cc(Cl)ccc56)CC4)CC3)ccnc2c1 [PPQ, piperaquine]							22.37 pmol oocyte-1 h-1 and 37.53 pmol oocyte-1 h-1 and 41.81 pmol oocyte-1 h-1 and 17.67 pmol oocyte-1 h-1	5.44 pmol oocyte-1 h-1 and 8.16 pmol oocyte-1 h-1 and 20.06 pmol oocyte-1 h-1 and 36.26 pmol oocyte-1 h-1 and 13.97 pmol oocyte-1 h-1	28.14 pmol oocyte-1 h-1 and 21.87 pmol oocyte-1 h-1 and 89.78 pmol oocyte-1 h-1 and 46.28 pmol oocyte-1 h-1 and 30.01 pmol oocyte-1 h-1 and 33.33 pmol oocyte-1 h-1	18.33 pmol oocyte-1 h-1 and 31.33 pmol oocyte-1 h-1 and 27.94 pmol oocyte-1 h-1 and 23.86 pmol oocyte-1 h-1
